Measured values: US12186332B2, “Methods for overcoming WNT/beta-catenin anti-cancer resistance in leukemia stem cells” (STOWERS INSTITUTE FOR MEDICAL RESEARCH, priority 2019, dated 2025)

Legend:
[1] = system: BM cells isolated from leukemic double mutants (LSCs, HSPCs); assay: In vitro treatment of BM cells from leukemic mice; assay type: cell-based, mouse; details: 11, 33 or 100 nM, 72 hours
Experimental: Doxorubicin, 0105375, and thioguanosine were added to 11, 33 or 100 nM and cultured for 72 hours and analyzed by flow cytometry for LSCs as in FIGS. 1A-1E. Fold change before and after culture for each population is indicated relative to equivalent vehicle control concentrations.
Doxorubicin, 0105375, and thioguanosine were added to 11, 33 or 100 nM and cultured for 72 hours and analyzed by flow cytometry for HSPCs as in FIGS. 1A-1E. Fold change before and after culture for each population is indicated relative to equivalent vehicle control concentrations.
Bone marrow cells from leukemic mice at 8 weeks post-induction were cultured overnight at 5-20×10^4 cells per well in 96-well U-bottom tissue culture plates (Becton, Dickinson and Company; Cat. No. 353077) in HSC expansion media in low O2 conditions as previously described (Perry et al. 2011). Doxorubicin (Sigma; D1515), 0105375 (University of Kansas CMLD compound), or Thioguanosine was mixed with HSC expansion media and added to the cultures to obtain final concentrations of 11, 33, 100 nM. Equivalent amounts of DMSO alone (vehicle control) were added to parallel cultures for comparison. Half-media changes were performed approximately every 24 hours. Cultures were analyzed after 72 hours exposure to the indicated drug.

[2] = system: Wnt-signaling reporter activity (TCF/Lef:H2B-GFP); assay: TCF/Lef:H2B-GFP reporter mice; assay type: in vivo, mouse; details: low-dose DXR (legend: [Low]nanoDXR, 3 hours post-injection)
Text: Percent of TCF/Lef:H2B-GFP^+ cells for each population are indicated.

[3] = target: T1, Akt:β-catenin interaction (EGFP-AKT and mCherry-β-catenin) (Mus musculus, UniProt Q02248); assay: FRET assay (acceptor photobleaching), 293T cells; assay type: cell-based
T1 construct: host or cells: 293T cells
T1 sequence (Q02248 1-781): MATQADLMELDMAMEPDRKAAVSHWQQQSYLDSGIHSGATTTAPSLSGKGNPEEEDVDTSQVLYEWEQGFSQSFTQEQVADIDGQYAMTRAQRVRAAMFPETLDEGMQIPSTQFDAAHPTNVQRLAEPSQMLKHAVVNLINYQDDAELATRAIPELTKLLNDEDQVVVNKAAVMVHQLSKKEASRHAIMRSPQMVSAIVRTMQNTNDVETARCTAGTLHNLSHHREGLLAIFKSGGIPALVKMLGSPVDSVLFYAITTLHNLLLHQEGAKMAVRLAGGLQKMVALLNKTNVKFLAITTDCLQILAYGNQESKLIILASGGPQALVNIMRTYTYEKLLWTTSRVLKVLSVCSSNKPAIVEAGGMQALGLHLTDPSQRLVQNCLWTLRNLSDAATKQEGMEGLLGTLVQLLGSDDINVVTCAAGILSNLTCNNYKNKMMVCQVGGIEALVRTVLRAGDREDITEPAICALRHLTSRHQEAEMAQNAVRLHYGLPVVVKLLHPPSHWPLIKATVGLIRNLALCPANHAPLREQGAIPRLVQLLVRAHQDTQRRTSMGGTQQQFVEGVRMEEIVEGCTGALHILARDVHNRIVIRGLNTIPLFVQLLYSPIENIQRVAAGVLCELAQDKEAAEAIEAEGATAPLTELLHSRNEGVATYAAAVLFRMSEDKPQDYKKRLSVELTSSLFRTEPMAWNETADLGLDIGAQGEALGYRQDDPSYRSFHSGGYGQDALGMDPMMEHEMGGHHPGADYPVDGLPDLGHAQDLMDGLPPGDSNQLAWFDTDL
Experimental: Cells transfected with EGFP-AKT and mCherry-β-catenin were treated with vehicle or Doxorubicin at the indicated concentrations and FRET efficiency was determined.
FIG. 7C provides the FRET verification between Akt and β-catenin.
FRET measurement was performed by using the acceptor photobleaching method. Briefly, 293T cells were transfected with EGFP-AKT and mCherry-β-catenin (Addgene, #39531, #55001). A Perkin-Elmer Ultraview spinning disc system with a CSU-X1 Yokogawa disc was used for imaging. A 40×1.2 NA Plan-apochromatic objective was used, and emission was collected onto a C9100 Hamamatsu Photonics EM-CCD. EGFP was excited with a 488 nm laser, and emission was collected through a 500-555 nm band pass filter. mCherry was illuminated, and photobleached, with a 561 nm laser. Emission of mCherry was collected with a 580-650 nm band pass filter. 6 images of EGFP were acquired before and 8 images after bleaching of the mCherry with intense 561 nm light. After subtraction of camera background, the average intensity of EGFP in a region of interest spanning the bleached cell was determined in the 4 images before acceptor bleach (I1), or the 4 images after acceptor bleach (12). FRET efficiency is reported as 1−(I1/I2). Calculations were based on >500 cell images.

pS^552-β-catenin = assay: Western analysis of compound-treated TOP and FOP cells; assay type: cell-based
Experimental: TOP and FOP cells were treated with thioguanosine at EC90, EC50 and EC25 derived from FIG. 2A for 48 hours, washed and flash frozen for Western analysis. EC50 data is shown.
TOP and FOP cells were treated with compound 0105375 at EC90, EC50 and EC25 derived from FIG. 2B for 48 hours, washed and flash frozen for Western analysis. EC50 data is shown.
TOP and FOP cells were treated with doxorubicin at EC90, EC50 and EC25 derived from FIG. 2C for 48 hours, washed and flash frozen for Western analysis. EC50 data is shown.

[4] = particularly low concentrations, 48 hours

For COc1cccc2c1C(=O)c1c(O)c3c(c(O)c1C2=O)C[C@@](O)(C(=O)CO)C[C@@H]3O[C@H]1C[C@H](N)[C@H](O)[C@H](C)O1 [DXR, doxorubicin], the “effect on HSPCs relative to vehicle” value [1] was “lower effect”, the “effect on LSCs relative to vehicle” value [1] was “significantly reduced” and the Wnt-signaling reporter activity [2] was “significantly inhibits”. The “concentration at which Akt:β-catenin interaction is inhibited” value [3] was less than 1 µM, the “FRET between EGFP-AKT and mCherry-β-catenin” value ([3]; versus vehicle treated cells) was “decreased with increasing concentrations and exposure time” and the “inhibition of pS552-β-catenin relative to pan β-catenin (HTS candidates)” value (pS^552-β-catenin) was “could inhibit pS^552-β-catenin with less effect on pan β-catenin”. For the same molecule, the “effect on β-catenin generally” value (pS^552-β-catenin; [4]) was “only minimal effect” and the pS552-β-catenin level (pS^552-β-catenin; [4]) was “inhibited”.
